Measured values as given in US20250115597A1, “TYK2 INHIBITORS AND COMPOSITIONS AND METHODS THEREOF” (LYNK PHARMACEUTICALS CO. LTD., priority 2021, published 2025).
Where two headings read alike, the source gives them in different places.

Tests used:
[1] = Microsomal metabolic stability assay; type: in vitro ADME; conditions: pH 7.4, 0.5 mg/mL protein, 1 μM compound
Method in brief: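 Parent loss was tracked by LC/MS/MS at 0, 5, 15, 30 and 45 min, with half-life derived from the ln(% remaining)–time slope. Incubation at 37 °C, pH 7.4 phosphate/EDTA buffer: 0.5 mg/mL microsomes, 1 μM compound, NADPH-regenerated (2 mM).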

[2] = target: T1, Ba/F3-FL-TYK2-P760L cells (Homo sapiens, UniProt P29597, P760L, cells depend on it); experiment: Anti-proliferative assay, Ba/F3-FL-TYK2-P760L cells (Cell-Titer Glo); type: cell-based; conditions: 72 h, read-out: BaF3-FL-T2P760L IC50
T1 construct: BaF3-FL-T2P760L (nM)
Method in brief: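 Compound exposure ran 72 h at 37 °C in 5% CO2 across nine 3-fold concentrations from a 20 μM top dose, added 24 h after seeding 2000 cells/well.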

[3] = Hepatocytes metabolic stability assay; type: in vitro ADME; conditions: cryopreserved hepatocytes, human hepatocytes, 1.0×10^6 cells/mL; for CLint scaled at 1 μM: read-out: Human hepatocyte Clint(liver); for half-life at 1 μM: read-out: Human hepatocyte stability T1/2
Method: Hepatocytes Metabolic Stability Assay
The vials of cryopreserved hepatocytes were removed from the liquid nitrogen container and immediately immersed in a 37° C. water bath for approximately 2 min. The melted ice pellets were transferred into tubes containing 50 mL of pre-warmed thawing medium and mixed well by gently inverting the tubes, and then centrifuged at 500 rpm for 3 minutes at room temperature. The supernatants were discarded, and cell pellets were re-suspended by adding appropriate volumes of pre-warmed incubation medium. The cells viability of each species was determined using Trypan Blue exclusion. Add 50 μL of pre-warmed 2× dosing solution to the wells designated for different time points. Then 50 μL of cells suspension (2×10^6 cells/mL) were added into appropriate wells at corresponding time points of T15, T30, T60, T120. Start timing and put the plate in an incubator at 37° C. For TO sample, add 300 μL of ACN containing internal standard to the wells, mix gently, then add 50 μL of pre-warmed hepatocytes solution (2×10^6 cells/mL). The concentration of test compound was 1 μM and 1.0×10^6 cells/mL in the final incubation. At each corresponding time point, test and control compounds reaction samples were stopped by adding 300 μL acetonitrile containing internal standard. All sample plates were thoroughly mixed and centrifuged at 5000×g for 15 minutes. The supernatants were diluted at ratio of 1:1 with ultra-pure water for test and positive controls. Then submitted for LC-MS/MS analysis.
The analyte/internal standard peak area ratios were converted to percentage remaining with the following equation: […]
The in vitro elimination constant, k of test compounds and control compounds were calculated from a log linear plot of % Remaining versus time, then the half-life (T1/2), the estimation of the in vitro hepatic intrinsic clearance (CLint) values were calculated from substrate disappearance rate in hepatocytes incubation: […]

JAK1-JH2 domain = target: T2, JAK1-JH2 domain (Homo sapiens, UniProt P23458); experiment: Binding activity test for JH2 domain of JAK1 (Tb-antibody/tracer FRET)
T2 construct: IC50 on JH2 domain activity (nM)
Method: Binding Activity Test for […] Domain of JAK1 and TYK2 The compounds are prepared in DMSO for 200× top dose, then serial dilute it with 27-fold for 3 more points. Add 8 μL/well in echo source plate, echo will add 75 nL/well with 3-fold serial dilution for 11 points in assay plate. 75 nL DMSO for high control and low control. […] For low control, add 5 μL/well assay buffer. And then spin down at 1000 rpm and centrifuge for 30 seconds. After enzyme system prepared, add 5 μL of Tb-antibody solution into each wells of assay plate. Spin down at 1000 rpm and centrifuge for 30 sec. After Tb-antibody added, also add 5 μL of tracer into the assay plate. Spin down at 1000 rpm and centrifuge for 30 sec. Incubate for 60 mins at 25° C. firstly and then continue to incubate the plate at 4° C. overnight. Read by envision in FRET mode. The Luminescence value was recorded by a multi-label reader Envision (PerkinElmer).

TYK2-JH2 domain = target: T3, TYK2-JH2 domain (Homo sapiens, UniProt P29597); experiment: Binding activity test for JH2 domain of TYK2 (Tb-antibody/tracer FRET); conditions: for JAK1/TYK2 selectivity: ratio JAK1-JH2 IC50 / TYK2-JH2 IC50
T3 construct: IC50 on JH2 domain activity (nM)
Method in brief: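 FRET read-out after 60 min at 25° C plus overnight at 4° C; tracer displacement detected via Tb-labelled antibody on the JH2 domain. Dose-response used 11 points at 3-fold dilution.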

[4] = dog liver microsomes, read-out: Dog LM Clint
[5] = dog liver microsomes, read-out: Dog LM T½
[6] = human liver microsomes, read-out: Human LM Clint
[7] = human liver microsomes, read-out: Human LM T½
[8] = rat liver microsomes, read-out: Rat LM Clint
[9] = rat liver microsomes, read-out: Rat LM T½

T3 sequence (P29597 589-875 limits assumed): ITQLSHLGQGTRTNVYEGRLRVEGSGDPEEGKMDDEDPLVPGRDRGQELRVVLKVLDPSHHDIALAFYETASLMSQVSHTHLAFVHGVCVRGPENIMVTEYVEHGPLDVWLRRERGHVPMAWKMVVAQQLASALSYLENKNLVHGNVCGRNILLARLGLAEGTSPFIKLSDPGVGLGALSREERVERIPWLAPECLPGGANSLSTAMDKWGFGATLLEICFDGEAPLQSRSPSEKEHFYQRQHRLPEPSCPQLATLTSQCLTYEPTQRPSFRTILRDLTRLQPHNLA
T2 sequence (P23458 583-855 limits assumed): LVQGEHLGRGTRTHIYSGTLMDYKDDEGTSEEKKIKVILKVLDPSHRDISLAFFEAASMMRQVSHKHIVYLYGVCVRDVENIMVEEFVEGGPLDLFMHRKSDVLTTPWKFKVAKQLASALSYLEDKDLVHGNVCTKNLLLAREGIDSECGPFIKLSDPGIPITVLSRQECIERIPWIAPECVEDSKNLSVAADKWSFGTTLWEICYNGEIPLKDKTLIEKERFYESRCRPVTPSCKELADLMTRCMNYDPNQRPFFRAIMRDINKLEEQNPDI
T1 sequence (P29597 whole entry P760L): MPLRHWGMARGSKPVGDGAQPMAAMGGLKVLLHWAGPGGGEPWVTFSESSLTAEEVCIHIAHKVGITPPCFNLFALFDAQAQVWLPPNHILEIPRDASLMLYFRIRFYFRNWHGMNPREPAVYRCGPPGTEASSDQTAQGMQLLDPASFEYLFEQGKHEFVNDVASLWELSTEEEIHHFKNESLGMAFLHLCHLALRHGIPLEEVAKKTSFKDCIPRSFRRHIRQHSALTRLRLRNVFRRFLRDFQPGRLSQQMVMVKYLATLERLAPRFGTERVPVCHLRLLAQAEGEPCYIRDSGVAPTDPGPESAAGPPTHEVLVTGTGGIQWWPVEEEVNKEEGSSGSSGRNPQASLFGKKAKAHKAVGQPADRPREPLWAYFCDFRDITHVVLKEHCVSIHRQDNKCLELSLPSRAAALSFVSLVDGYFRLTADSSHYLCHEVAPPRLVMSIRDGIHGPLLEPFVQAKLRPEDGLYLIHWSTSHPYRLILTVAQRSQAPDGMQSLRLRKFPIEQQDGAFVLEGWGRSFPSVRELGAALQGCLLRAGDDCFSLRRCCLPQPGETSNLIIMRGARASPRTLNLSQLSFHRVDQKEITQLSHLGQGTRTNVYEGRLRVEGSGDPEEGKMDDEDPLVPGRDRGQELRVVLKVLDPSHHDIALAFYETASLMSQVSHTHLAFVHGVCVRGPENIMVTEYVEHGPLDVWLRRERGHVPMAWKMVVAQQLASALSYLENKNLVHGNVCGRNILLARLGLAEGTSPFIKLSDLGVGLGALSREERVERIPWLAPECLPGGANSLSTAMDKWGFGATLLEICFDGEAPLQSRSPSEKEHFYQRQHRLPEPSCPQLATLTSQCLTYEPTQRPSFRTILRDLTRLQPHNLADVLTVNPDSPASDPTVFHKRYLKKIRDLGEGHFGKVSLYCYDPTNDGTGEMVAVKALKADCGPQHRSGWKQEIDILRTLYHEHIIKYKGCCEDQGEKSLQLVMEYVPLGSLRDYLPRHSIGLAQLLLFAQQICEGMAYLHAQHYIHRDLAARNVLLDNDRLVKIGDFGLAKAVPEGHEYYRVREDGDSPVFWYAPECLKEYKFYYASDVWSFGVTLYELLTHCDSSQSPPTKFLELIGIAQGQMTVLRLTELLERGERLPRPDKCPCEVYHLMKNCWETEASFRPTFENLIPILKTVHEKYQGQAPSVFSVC

| Compound | microsomal CLint at 1 μM [1, 4] | half-life at 1 μM [1, 5] | microsomal CLint at 1 μM [1, 6] | half-life at 1 μM [1, 7] | microsomal CLint at 1 μM [1, 8] | half-life at 1 μM [1, 9] | GI50 [2] | CLint scaled at 1 μM [3] | half-life at 1 μM [3] | IC50 (JAK1-JH2 domain) | IC50 (TYK2-JH2 domain) | JAK1/TYK2 selectivity (TYK2-JH2 domain) |
| --- | --- | --- | --- | --- | --- | --- | --- | --- | --- | --- | --- | --- |
| [2H]C([2H])([2H])NC(=O)c1nnc2cc1Nc1cc(cc(-c3ncn(C)n3)c1OC)COCc1nc(ccc1F)N2 [Example 67, 18-Fluoro-10-methoxy-N-(methyl-d3)-11-(1-methyl-1H-1,2,4-triazol-3-yl)-15-oxa-2,4,5,8,21-pentaazatetracyclo[15.3.1.1^{3,7}.1^{9,13}]tricosa-1(20),3,5,7(23),9(22),10,12,17(21),18-nonaene-6-carboxamide] | 31.9 µL/min/mg | 0.725 h | 7.54 µL/min/mg | 3.06 h | 47.4 µL/min/mg | 0.488 h | 44.4 nM | < 7.35 mL/min/kg | > 4 h |  |  |  |
| [2H]C([2H])([2H])NC(=O)c1cnc(Nc2ccncn2)cc1Nc1ccc2cnn(C([2H])([2H])[2H])c2c1OC [Example 153, 4-((7-Methoxy-1-(methyl-d3)-1H-indazol-6-yl)amino)-N-(methyl-d3)-6-(pyrimidin-4-ylamino)nicotinamide] | 51.9 µL/min/mg | 0.445 h | 50.4 µL/min/mg | 0.458 h | 90.5 µL/min/mg | 0.255 h | 71.3 nM |  |  | 15.1 nM | 0.455 nM | 33.2 |
| [2H]C([2H])([2H])NC(=O)c1cnc(Nc2ccc(F)cn2)cc1Nc1ccn2ncc(C#N)c2c1OC [Example 257, 4-((3-Cyano-4-methoxypyrazolo[1,5-a]pyridin-5-yl)amino)-6-((5-fluoropyridin-2-yl)amino)-N-(methyl-d3)nicotinamide] | 9.01 µL/min/mg | 2.56 h | 9.51 µL/min/mg | 2.43 h | 20.2 µL/min/mg | 1.14 h | 39.7 nM |  |  | 3.18 nM | 0.135 nM | 23.5 |
| [2H]C([2H])([2H])NC(=O)c1cnc(Nc2ccc(F)cn2)cc1Nc1ncc2cnn(CC)c2c1OC [Example 263, 4-((1-Ethyl-7-methoxy-1H-pyrazolo[4,3-c]pyridin-6-yl)amino)-6-((5-fluoropyridin-2-yl)amino)-N-(methyl-d3)nicotinamide] | 97.2 µL/min/mg | 0.238 h | 29.2 µL/min/mg | 0.791 h | 40.9 µL/min/mg | 0.566 h | 41.7 nM |  |  | 25.4 nM | 0.29 nM | 87.4 |
| [2H]C([2H])([2H])NC(=O)c1cnc(NC(=O)C2CC2)cc1Nc1ccc2cnn(CC(N)=O)c2c1OC [Example 259, 4-((1-(2-Amino-2-oxoethyl)-7-methoxy-1H-indazol-6-yl)amino)-6-(cyclopropanecarboxamido)-N-(methyl-d3)nicotinamide] | 9.24 µL/min/mg | 2.5 h | 4.39 µL/min/mg | 5.26 h | 4.7 µL/min/mg | 4.92 h | > 5000 nM |  |  | 79.9 nM | 6.29 nM | 12.7 |
| [2H]C([2H])([2H])NC(=O)c1cnc(NC(=O)C2CC2)cc1Nc1ccn2ncc(OC)c2c1OC [Example 278, 6-(Cyclopropanecarboxamido)-4-((3,4-dimethoxypyrazolo[1,5-a]pyridin-5-yl)amino)-N-(methyl-d3)nicotinamide] |  |  |  |  |  |  | 130 nM |  |  | 9.63 nM | 0.385 nM | 25.0 |
| [2H]C([2H])([2H])NC(=O)c1cnc(Nc2cnn(C3CC3)c2)nc1Nc1ccc2cnn(CC)c2c1OC([2H])([2H])[2H] [Example 137, 2-((1-Cyclopropyl-1H-pyrazol-4-yl)amino)-4-((1-ethyl-7-(methoxy-d3)-1H-indazol-6-yl)amino)-N-(methyl-d3)pyrimidine-5-carboxamide] |  |  |  |  |  |  | 335 nM | 14.4 mL/min/kg | 2.04 h |  |  |  |
| [2H]C([2H])([2H])NC(=O)c1cnc(NC(=O)C2CC2)cc1Nc1ccn2ncc(C(C)C(N)=O)c2c1OC (stereo not drawn) [Example 252, 4-((3-(1-Amino-1-oxopropan-2-yl)-4-methoxypyrazolo[1,5-a]pyridin-5-yl)amino)-6-(cyclopropanecarboxamido)-N-(methyl-d3)nicotinamide] |  |  |  |  |  |  | > 5000 nM |  |  | 212 nM | 1.68 nM | 125.69 |
| [2H]C([2H])([2H])NC(=O)c1cnc(NC(=O)C2CC2)cc1Nc1ncc2cnn(CCC(F)(F)F)c2c1OC [Example 275, 6-(Cyclopropanecarboxamido)-4-((7-methoxy-1-(3,3,3-trifluoropropyl)-1H-pyrazolo[4,3-c]pyridin-6-yl)amino)-N-(methyl-d3)nicotinamide] |  |  |  |  |  |  | 118 nM |  |  | 27 nM | 0.449 nM | 60.2 |
| [2H]C([2H])([2H])NC(=O)c1cnc(Nc2ccn(C)n2)cc1Nc1ncc2cnn(CC)c2c1OC [Example 264, 4-((1-Ethyl-7-methoxy-1H-pyrazolo[4,3-c]pyridin-6-yl)amino)-N-(methyl-d3)-6-((1-methyl-1H-pyrazol-3-yl)amino)nicotinamide] | 16.9 µL/min/mg | 1.37 h | 12.1 µL/min/mg | 1.91 h | 15.4 µL/min/mg | 1.5 h | 278 nM |  |  | 73.7 nM | 1.77 nM | 41.4 |
| [2H]C([2H])([2H])NC(=O)c1cnc(NC(=O)C2CC2)cc1Nc1ccn2ncc(CC(N)=O)c2c1OC [Example 243, 4-((3-(2-Amino-2-oxoethyl)-4-methoxypyrazolo[1,5-a]pyridin-5-yl)amino)-6-(cyclopropanecarboxamido)-N-(methyl-d3)nicotinamide] |  |  |  |  |  |  | > 5000 nM |  |  | 130 nM | 3.45 nM | 37.7 |
| [2H]C([2H])([2H])NC(=O)c1cnc(NC(=O)C2CC2)cc1Nc1ncc2cnn(C3CC3)c2c1OC [Example 267, 6-(Cyclopropanecarboxamido)-4-((1-cyclopropyl-7-methoxy-1H-pyrazolo[4,3-c]pyridin-6-yl)amino)-N-(methyl-d3)nicotinamide] |  |  |  |  |  |  | 227 nM |  |  | 9.25 nM | 0.181 nM | 51.1 |
| [2H]C([2H])([2H])NC(=O)c1nnc(NC(=O)C2CC2)cc1Nc1cccc(-c2ncn(C)n2)c1OC [Example 41, 6-(Cyclopropanecarboxamido)-4-((2-methoxy-3-(1-methyl-1H-1,2,4-triazol-3-yl)phenyl)amino)-N-(methyl-d3)pyridazine-3-carboxamide] |  |  |  |  |  |  |  | < 17.8 mL/min/kg | > 3.61 h |  |  |  |
